The source of these data is US9656971B2, “COMT inhibitors” (Hoffmann-La Roche Inc., priority 2012, dated 2017).

Counter-ions that a name gives are not always drawn. Like-named read-outs stand apart in the source and are kept apart here.

As usually defined, the IC50 is the midpoint of a concentration-inhibition curve.

This test concerns the target T1, Rec. human COMT (Homo sapiens, UniProt P21964).
T1 sequence (P21964 1-271): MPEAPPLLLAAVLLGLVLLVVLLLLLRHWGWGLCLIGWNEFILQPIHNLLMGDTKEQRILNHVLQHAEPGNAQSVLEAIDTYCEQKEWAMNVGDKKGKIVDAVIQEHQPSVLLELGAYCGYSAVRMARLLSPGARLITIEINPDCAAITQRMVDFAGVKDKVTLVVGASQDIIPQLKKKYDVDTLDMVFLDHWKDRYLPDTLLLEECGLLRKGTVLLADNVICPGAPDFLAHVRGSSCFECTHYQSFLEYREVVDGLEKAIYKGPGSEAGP
Put plainly: COMT-Fluorescence Assay. The following applies: rec. human COMT 25 nM, 4-Nitrocatechol-Alexa488 200 nM, SAM 500 nM. The test is classed as biochemical. How it is done:
This intramolecular interaction is disturbed if the 4-Nitrocatechol is methylated. […] This increase of fluorescence intensity can be followed in a kinetic measurement. The slope in the linear range of the kinetic is calculated. An inhibitor compound decreases the slope.
Signal [rfu/min]=(rfu(end-point)−rfu(startpoint))/incubation_time_#2

The mark [1] stands for this setting: COMT-fluorescence assay, read-out: IC50.

For `O=c1[nH]cnc2c(O)cc(-c3ccccc3COCCC3CCN(CC(F)(F)F)CC3)c(Cl)c12` [Example 120, 5-Chloro-8-hydroxy-6-(2-((2-(1-(2,2,2-trifluoroethyl)piperidin-4-yl)ethoxy)methyl)phenyl)quinazolin-4(3H)-one 2,2,2-trifluoroacetate], the half-inhibitory concentration (IC50) under setting [1] worked out at 90 nM. Still for that read-out and setting: the result for `COc1ccc(C(F)(F)F)cc1-c1cc(O)c2nc[nH]c(=O)c2c1` [Example 26, 8-Hydroxy-6-(2-methoxy-5-(trifluoromethyl)phenyl)quinazolin-4(3H)-one] reads 190 nM; that for `COCc1c(C(=O)N2CCN(C)CC2)cccc1-c1cc(O)c2nc[nH]c(=O)c2c1` [Example 235, 8-Hydroxy-6-[2-methoxymethyl-3-(4-methyl-piperazine-1-carbonyl)-phenyl]-3H-quinazolin-4-one], 30 nM; that for `COC(=O)c1csc(-c2cc(O)c3nc[nH]c(=O)c3c2)n1` [Example 84, Methyl 2-(8-hydroxy-4-oxo-3,4-dihydroquinazolin-6-yl)thiazole-4-carboxylate], 110 nM. On the same count and under the same terms, the result for `O=c1[nH]cnc2c(O)cc(-c3ccccc3CCCN3CCCC3)cc12` [Example 242, 8-Hydroxy-6-(2-(3-(pyrrolidin-1-yl)propyl)phenyl)quinazolin-4(3H)-one] reads 220 nM.

Regarding `O=c1[nH]cnc2c(O)cc(-c3ccc4c(c3)OCO4)cc12` [Example 177, 6-(Benzo[d][1,3]dioxol-5-yl)-8-hydroxyquinazolin-4(3H)-one], the IC50 under setting [1] was 40 nM. With `CS(=O)(=O)c1ccc(-c2cc(O)c3nc[nH]c(=O)c3c2)c(F)c1` [Example 158, 6-(2-Fluoro-4-(methylsulfonyl)phenyl)-8-hydroxyquinazolin-4(3H)-one], the half-maximal inhibitory concentration (IC50) (IC50, COMT-fluorescence assay) amounted to 30 nM. As to `Cc1ccc(O)c2nc[nH]c(=O)c12` [Example 140, 8-Hydroxy-5-methylquinazolin-4(3H)-one], under setting [1], the IC50 was found to be 5040 nM. As to `CN(C)c1ccc(-c2cc(O)c3nc[nH]c(=O)c3c2)cc1` [Example 147, 6-(4-Dimethylamino-phenyl)-8-hydroxy-3H-quinazolin-4-one], the IC50 under setting [1] amounted to 20 nM.

Regarding `COC(=O)C(C)c1ccc(-c2ccccc2)c(-c2cc(O)c3nc[nH]c(=O)c3c2)c1` (racemic) [Example 32, (rac.) Methyl 2-(2-(8-hydroxy-4-oxo-3,4-dihydroquinazolin-6-yl)biphenyl-4-yl)propanoate], under setting [1], the IC50 is 2000 nM. The molecule `CC(=O)c1ccccc1-c1cc(O)c2nc[nH]c(=O)c2c1` [Example 112, 6-(2-Acetylphenyl)-8-hydroxyquinazolin-4(3H)-one] came in with an IC50 (IC50, COMT-fluorescence assay) of 170 nM. The same measure, in the same setting: the same measure for `CNCCc1ccccc1-c1cc(O)c2nc[nH]c(=O)c2c1` [Example 232, 8-Hydroxy-6-(2-(2-(methylamino)ethyl)phenyl)quinazolin-4(3H)-one]: 310 nM; for `O=c1[nH]cnc2c(O)cc(-c3cc(F)c(F)c(F)c3)cc12` [Example 28, 8-Hydroxy-6-(3,4,5-trifluorophenyl)quinazolin-4(3H)-one]: 40 nM. With `COc1ccc(C(C)(C)C)cc1-c1cc(O)c2nc[nH]c(=O)c2c1` [Example 35, 6-(5-tert-Butyl-2-methoxyphenyl)-8-hydroxyquinazolin-4(3H)-one], the half-maximal inhibitory concentration (IC50) under setting [1] worked out at 1300 nM. In the case of `COc1ccccc1Cc1cc(O)c2nc[nH]c(=O)c2c1` [Example 14, 8-Hydroxy-6-(2-methoxybenzyl)quinazolin-4(3H)-one], under setting [1], the concentration for half-maximal inhibition (IC50) worked out at 4900 nM.

In the case of `COc1ccc(-c2cc(O)c3nc[nH]c(=O)c3c2)cc1` [Example 135, 8-Hydroxy-6-(4-methoxy-phenyl)-3H-quinazolin-4-one], the 50% inhibitory concentration (IC50) (IC50, COMT-fluorescence assay) worked out at 10 nM. For `CN(C)CCCc1ccccc1-c1cc(O)c2nc[nH]c(=O)c2c1` [Example 243, 6-(2-(3-(Dimethylamino)propyl)phenyl)-8-hydroxyquinazolin-4(3H)-one], the 50% inhibitory concentration (IC50) under setting [1] turned out to be 130 nM. Still for that read-out and setting: the same measure for `COc1ccc(C)cc1-c1cc(O)c2nc[nH]c(=O)c2c1` [Example 36, 8-Hydroxy-6-(2-methoxy-5-methylphenyl)quinazolin-4(3H)-one]: 80 nM. Molecule `CC(C)Oc1cccc(-c2cc(O)c3nc[nH]c(=O)c3c2)c1` [Example 24, 8-Hydroxy-6-(3-isopropoxyphenyl)quinazolin-4(3H)-one] returned an IC50 (IC50, COMT-fluorescence assay) of 10 nM. As for `O=C(c1ccccc1)c1cc(O)c2nc[nH]c(=O)c2c1` [Example 68, 6-Benzoyl-8-hydroxy-3H-quinazolin-4-one], under setting [1], the IC50 is 60 nM. As to `CC(C)N(C(=O)c1ccccc1-c1cc(O)c2nc[nH]c(=O)c2c1)C(C)C` [Example 226, 2-(8-Hydroxy-4-oxo-3,4-dihydroquinazolin-6-yl)-N,N-diisopropylbenzamide], the half-maximal inhibitory concentration (IC50) under setting [1] was determined as 1030 nM. Same read-out and setting: the result for `Cc1cscc1-c1cc(O)c2nc[nH]c(=O)c2c1` [Example 164, 8-Hydroxy-6-(4-methylthiophen-3-yl)quinazolin-4(3H)-one] reads 20 nM. On to `Cc1ncccc1-c1cc(O)c2nc[nH]c(=O)c2c1` [Example 138, 8-hydroxy-6-(2-methylpyridin-3-yl)quinazolin-4(3H)-one], for which, under setting [1], the IC50 was determined as 20 nM. The same measure, in the same setting: the result for `CN(C)S(=O)(=O)c1ccccc1-c1cc(O)c2nc[nH]c(=O)c2c1` [Example 250, 2-(8-Hydroxy-4-oxo-3,4-dihydro-quinazolin-6-yl)-N,N-dimethyl-benzenesulfonamide] reads 1140 nM; that for `Cc1cc(C(=O)N2CCN(C)CC2)sc1-c1cc(O)c2nc[nH]c(=O)c2c1` [Example 103, 8-Hydroxy-6-[3-methyl-5-(4-methyl-piperazine-1-carbonyl)-thiophen-2-yl]-3H-quinazolin-4-one], 10 nM. On the same count and under the same terms, the same measure for `COCCn1cc(-c2cc(O)c3nc[nH]c(=O)c3c2)cn1` [Example 47, 8-Hydroxy-6-(1-(2-methoxyethyl)-1H-pyrazol-4-yl)quinazolin-4(3H)-one]: 60 nM; for `CN1CCN(C(=O)c2ccccc2-c2cc(O)c3nc[nH]c(=O)c3c2)CC1` [Example 193, 8-Hydroxy-6-[2-(4-methyl-piperazine-1-carbonyl)-phenyl]-3H-quinazolin-4-one]: 1280 nM. With `O=c1[nH]cnc2c(O)cc(-c3ccccc3COCCN3CCOCC3)cc12` [Example 236, 8-Hydroxy-6-[2-(2-morpholin-4-yl-ethoxymethyl)-phenyl]-3H-quinazolin-4-one], under setting [1], the 50% inhibitory concentration (IC50) is 20 nM. On the same count and under the same terms, the result for `COc1cccc(Cc2cc(O)c3nc[nH]c(=O)c3c2)c1` [Example 15, 8-Hydroxy-6-(3-methoxybenzyl)quinazolin-4(3H)-one] reads 1200 nM; that for `COCc1nc(NC(=O)C(C)(C)C)ccc1-c1cc(O)c2nc[nH]c(=O)c2c1` [Example 104, N-(5-(8-Hydroxy-4-oxo-3,4-dihydroquinazolin-6-yl)-6-(methoxymethyl)pyridin-2-yl)pivalamide], 10 nM. Still for that read-out and setting: the same measure for `Cc1ccc(-c2ccc(C(F)(F)F)cc2)c(-c2cc(O)c3nc[nH]c(=O)c3c2)c1` [Example 30, 8-Hydroxy-6-(4-methyl-4′-(trifluoromethyl)biphenyl-2-yl)quinazolin-4(3H)-one]: 1400 nM; for `COCc1cc(C(=O)N2CCN(C)CC2)ccc1-c1cc(O)c2nc[nH]c(=O)c2c1` [Example 231, 8-Hydroxy-6-[2-methoxymethyl-4-(4-methyl-piperazine-1-carbonyl)-phenyl]-3H-quinazolin-4-one; compound with formic acid]: 10 nM.

As to `CCN(CC)C(=O)c1ccc(-c2c(-c3ccc(F)cc3)cc(O)c3nc[nH]c(=O)c23)cc1` [Example 55, N,N-Diethyl-4-(6-(4-fluorophenyl)-8-hydroxy-4-oxo-3,4-dihydroquinazolin-5-yl)benzamide], the IC50 under setting [1] stood at 10 nM. Same read-out and setting: the same measure for `O=c1[nH]cnc2c(O)cc(Br)c([N+](=O)[O-])c12` [Example 44, 6-Bromo-8-hydroxy-5-nitro-3H-quinazolin-4-one]: 110 nM; for `CCOC(=O)c1[nH]c(-c2cc(O)c3nc[nH]c(=O)c3c2)nc1C` [Example 80, Ethyl 2-(8-hydroxy-4-oxo-3,4-dihydroquinazolin-6-yl)-4-methyl-1H-imidazole-5-carboxylate]: 90 nM. The same measure, in the same setting: the result for `Cc1ccc(-c2cc(O)c3nc[nH]c(=O)c3c2)cn1` [Example 166, 8-Hydroxy-6-(6-methylpyridin-3-yl)quinazolin-4(3H)-one] reads 60 nM.

In the case of `O=c1[nH]cnc2c(O)cc(Br)c(Cl)c12` [Example 117, 6-Bromo-5-chloro-8-hydroxyquinazolin-4(3H)-one], the IC50 under setting [1] is 40 nM. For the setting “IC50, COMT-fluorescence assay”, `CN1CCN(c2cc(O)c3nc[nH]c(=O)c3c2)CC1` [Example 190, 8-Hydroxy-6-(4-methyl-piperazin-1-yl)-3H-quinazolin-4-one] registered an IC50 of 1290 nM. As to `O=c1[nH]cnc2c(O)cc(-c3cccc(CN4CCOCC4)c3)cc12` [Example 39, 8-Hydroxy-6-(3-(morpholinomethyl)phenyl)quinazolin-4(3H)-one 1:1 salt with trifluoroacetate], the IC50 under setting [1] was found to be 20 nM.

`COCc1nc(C)sc1-c1cc(O)c2nc[nH]c(=O)c2c1` [Example 46, 8-Hydroxy-6-(4-(methoxymethyl)-2-methylthiazol-5-yl)quinazolin-4(3H)-one]: the concentration for half-maximal inhibition (IC50) under setting [1] is 10 nM. Still for that read-out and setting: the same measure for `CN(C)CCc1ccccc1-c1cc(O)c2nc[nH]c(=O)c2c1` [Example 234, 6-(2-(2-(Dimethylamino)ethyl)phenyl)-8-hydroxyquinazolin-4(3H)-one]: 980 nM.
